Data set [1] concerns platelets (arachidonic acid-induced aggregation). In words: Aspirin resistance by arachidonic acid-induced aggregation, LTA (Example 1). The format is in vivo. To be noted: 1.0 mM arachidonic acid; 1/70 patients; aspirin 81-325 mg qd. The source says:
J Am Coll Cardiol 1998 89:783).

Data set [2] shares this test system. The settings on record: Gum et al. study; ADP and 1.6 mM arachidonic acid; cited from earlier work.
Data set [3] has as its system platelets (ADP-induced aggregation). In words: ADP-induced platelet aggregation by light transmittance aggregometry after coronary stenting (Example 2). The format is in vivo, patients. The protocol:
Patients were randomly assigned to one of four treatment regimens by a computer generated assignment that was chosen from a sealed envelope by the study personnel: […] […] Unfractionated heparin was administered according to the ESPRIT dosing regimen (60 U/kg) as a bolus to all patients in the catheterization laboratory immediately prior to stenting. […] The blood-citrate tubes were centrifuged at 120 g for 5 minutes to recover platelet rich plasma (PRP) and further centrifuged at 850 g for 10 minutes to recover platelet poor plasma (PPP). The platelet count was determined in the PRP sample and adjusted to 3.0×10^8/ml with homologous platelet poor plasma. The PRP and PPP were stored at room temperature to be used within two hours. Platelet aggregation was assessed as described previously. […] Aggregation was expressed as the maximum percent change in light transmittance from baseline, using PPP as a reference.

Data set [4] deals with activated GP IIb/IIIa receptors. In words: Whole blood flow cytometry, stimulated active GP IIb/IIIa expression (Example 2). The format is in vivo, patients. To be noted: 18-24 hours post-stenting, 5 μM ADP stimulated. The method, then: (recognizes activated GP IIb/IIIa receptors), R-Phycoerythrin (R-PE)-conjugated CD41a (recognizes total GP IIb/IIIa receptors), and CY-Chrome™ conjugated CD62P (recognizes p-selectin). […] The blood-citrate mixture was stimulated with 5 μM ADP for 2 minutes.
The definition of an infarct was CK-MB>3× upper limits normal (ULN) in at least 2 samples and a large infarct was defined as CK-MB>5×ULN in at least 2 samples.10,13 Bleeding was quantified according to the TIMI criteria.16 In brief, major bleeding was defined as clinically overt bleeding accompanied by a fall in hemoglobin of […] or a fall in hematocrit of 9 to <15%.
Background: A flow cytometer gives signals particle by particle.

Data set [5] has as its system myocardial necrosis markers (troponin I, CKMB, myoglobin). In words: Myocardial necrosis markers and infarction after elective stenting (Example 2). The format is in vivo, patients. The settings on record: for criteria met for a myocardial infarction: CK-MB>3× ULN in at least 2 samples; for large infarcts: CK-MB>5×ULN in at least 2 samples. The method, then:
Patients were randomly assigned to one of four treatment regimens by a computer generated assignment that was chosen from a sealed envelope by the study personnel: […] […] Unfractionated heparin was administered according to the ESPRIT dosing regimen (60 U/kg) as a bolus to all patients in the catheterization laboratory immediately prior to stenting. Cardiac markers were measured at the same times as the platelet assays. The peak levels of troponin I, creatinine kinase MB (CKMB), and myoglobin were determined using the Triage® Cardiac Panel with a Triage® Meter (Biosite Inc., San Diego, Calif.). This method is based on a fluorescence immunoassay for the quantitative determination of these cardiac markers.

The subject of a further data set is p-selectin. The settings on record: stimulated; 18-24 hours post-stenting; 300 mg clopidogrel alone.
The conditions of data set [6]: Group A, 300 mg clopidogrel; hematoma.
Description: Relative platelet inhibition was defined for purposes of this study as follows: (baseline aggregation minus posttreatment aggregation)/baseline aggregation×100%.14 Mean platelet reactivity was calculated as the average platelet aggregation recorded at 3, 8 and 18-24 hours poststenting. […] The definition of an infarct was CK-MB>3× upper limits normal (ULN) in at least 2 samples and a large infarct was defined as CK-MB>5×ULN in at least 2 samples.10,13 Bleeding was quantified according to the TIMI criteria.16 In brief, major bleeding was defined as clinically overt bleeding accompanied by a fall in hemoglobin of 3.0-5.0 g/dl or a fall in hematocrit of 9 to <15%. Major bleeding occurred when the hemoglobin decreased >5 g/dl or the hematocrit ≧15%.
The subject of data set [7] is platelets (ADP-induced aggregation). To be noted: resistance = >75th percentile of group without SAT, 75 mg maintenance dose.
Excerpt: Cases of stent thrombosis (n=30) were identified by searching the medical records of patients who underwent coronary stenting in the last 1.5 years at the Sinai Hospital of Baltimore and Union Memorial Hospital, Baltimore, Md. […] Stent thrombosis was defined by the sudden onset of coronary artery occlusion in a stented vessel resulting in hospitalization and judged by the treating interventionalist as due to thrombosis. Platelet reactivity in patients with stent thrombosis (SAT) was compared to a group of patients without SAT. In patients without SAT, platelet studies were performed 5-14 days post-procedure and these patients were enrolled consecutively (n=100). […]
Platelet aggregation was determined by conventional light transmittance aggregometry in response to 5 and 20 μM ADP (adenosine diphosphate); and 1.0 mM arachidonic acid using standard methods as previously described. […] The platelet count was determined in the PRPR sample and adjusted to 2-3×10^8/ml with homologous PPP. Platelets in PRP were stimulated with a final concentration of 5 and 20 μM ADP (Chronolog, Haverton, Pa.), and percent aggregation was assessed as previously described using a Chronolog Lumi aggregometer (Model 490A) with the Aggro-Link software package (Gurbel et al. J Am Coll Cardiol 1998 89:783). […]
Data set [8] shares this test system. The settings on record: cited from earlier work.

SMILES strings stand for the structures. Read-outs that look alike come from different tables or passages of the source. Where a SMILES comes first, the peptide text is derived from it. Bridges are numbered along the chain shown (N, C = ends). [ ]: non-standard residue; d: D form. hArg = N=C(N)NCCCC[C@H](N)C(=O)O; Mpa = O=C(O)CCS

Description for p-selectin: The surface expression of platelet receptors was determined by whole blood flow cytometry using three-color analysis method (Immunocytometry Systems, Cytometry Source Book, Becton Dickinson) with the following monoclonal antibodies: FITCconjugated PAC-1. (recognizes activated GP IIb/IIIa receptors), R-Phycoerythrin (R-PE)-conjugated CD41a (recognizes total GP IIb/IIIa receptors), and CY-Chrome™ conjugated CD62P (recognizes p-selectin). All three antibodies were purchased from BD Biosciences, San Diego, Calif. The blood-citrate mixture was stimulated with 5 μM ADP for 2 minutes. Saturating concentrations of respective antibodies were then added and the tubes were incubated at room temperature for 20 minutes in the dark. […] The labeled samples were analyzed by a Becton Dickinson FACScan flow cytometer set up to measure fluorescence light scatter. The instrument was calibrated with fluorescence beads for the three-color flow cytometer setup (CaliBRITE™3, BD Biosciences). […] The data were collected in list mode and then analyzed using CELL Quest Software (BD BioSciences). P-selectin was expressed as percent positive cells (i.e. the ratio of CD62P (CY-Chrome™) verses CD41a (R-PE) positive cells) as previously described. Activated GP IIb/IIIa was expressed as log mean fluorescence intensity.

For `CC(=O)Oc1ccccc1C(=O)O` [aspirin], the “patients meeting the criteria for aspirin resistance” value was 1.5% in data set [1] and 5.5% in data set [2].

In the case of `COC(=O)[C@H](c1ccccc1Cl)N1CCc2sccc2C1` [clopidogrel], the “time of peak inhibitory effect” value in data set [3] (5 μM ADP, 300 mg clopidogrel loading dose) was 18 to 24 h; in data set [3] (5 μM ADP, 600 mg clopidogrel loading dose), 8 h; in data set [3] (20 μM ADP, 300 mg clopidogrel loading dose), 8 h; in data set [3] (20 μM ADP, 600 mg clopidogrel loading dose), 8 h. The “platelet inhibition, 600 mg vs 300 mg loading dose” value in [3] (5 μM ADP, 600 mg loading dose, no eptifibatide, first 24 hours after stenting) is “greater platelet inhibition”. Besides, the “mean platelet reactivity vs 600 mg clopidogrel alone” value in data set [3] (5 μM ADP, average of 3, 8 and 18-24 hours post-stenting, 300 mg clopidogrel alone) is reported as “higher mean platelet reactivity”. The “inhibition of stimulated expression of active GP IIb/IIIa” value in [4] (300 mg clopidogrel loading dose (Groups A, C)) was 50±20%; in [4] (600 mg clopidogrel loading dose (Groups B, D)), 63±7%. Moreover, in [5] (Group A, 300 mg clopidogrel), the “ST-elevation myocardial infarction in-hospital following a subacute thrombosis” value is reported as “one”. Also, the “criteria met for a myocardial infarction” value in data set [5] (Group A, 300 mg clopidogrel) amounted to 3 patients; in data set [5] (Group B, 600 mg clopidogrel), 1 patients. For the same compound, the large infarcts in data set [5] (Group A, 300 mg clopidogrel) came out at 2; in data set [5] (Group B, 600 mg clopidogrel), 1. Besides, in the data set on p-selectin, the “effect in p-selectin expression” value was “least effect”. The minor bleeding entry in [6] is “one”. Further, the “estimated incidence of clopidogrel resistance” value is reported as 65% in data set [7] (5 μM ADP-induced aggregation) and 60% in [7] (20 μM ADP-induced aggregation). For the same compound, in data set [8] (300 mg loading dose, 5 and 20 μM ADP, 24 hours after administration), the “inhibition of baseline aggregation” value is listed as under 40%.

With `N=C(N)NCCCC[C@@H]1NC(=O)CCSSC[C@@H](C(N)=O)NC(=O)[C@@H]2CCCN2C(=O)[C@H](Cc2c[nH]c3ccccc23)NC(=O)[C@H](CC(=O)O)NC(=O)CNC1=O` [eptifibatide] ([Mpa][hArg]GDWPC-NH2; disulfide 1-7), the mean platelet reactivity result in [3] (5 μM ADP, average of 3, 8 and 18-24 hours post-stenting, eptifibatide use) is given as “lowest mean platelet reactivity”. Moreover, the large infarcts entry in data set [5] (either group that received eptifibatide (Groups C, D)) is listed as “no large infarcts”. In data set [5] (groups treated with eptifibatide vs clopidogrel alone), the “CKMB release (>1-3×ULN), overall” value is “lowest”. Also, the “inhibition (of aggregation)” value in [8] (other studies) is listed as over 80%.

The values above are taken from patent US8440420B2, “Assessment of cardiac health and thrombotic risk in a patient” (priority 2005, dated 2013).
